{
  "source": "patent USRE48077E1",
  "about": "“Methods of treating ototoxicity” (Anida Pharma Inc., priority 2013, dated 2020)",
  "format_in_all_cases": "cell-based, mouse",
  "key": {"iNOS": {"test_system": "iNOS", "experiment": "Immunofluorescence staining of stress and inflammatory markers: iNOS", "procedure": "(§1) The cultures were kept at 33° C. in an incubator with 10% CO2. Detection of stress and inflammatory markers in UB/OC-1 cells was performed by immunofluorescence staining. UB/OC-1 cells were first plated in a 12 well plate. […] After the treatment, the cells were fixed with 4% paraformaldehyde (Sigma, St. Louis, Mo.), followed by washing once with phosphate buffered saline (PBS). Coverslips were then incubated with solution A—5% donkey serum (Jackson Immuno Laboratories, West Grove, Pa.) and 0.5% Triton-X (Sigma, St. Louis, Mo.) in PBS for 30 min at room temperature. Double immunostaining for different markers NOX3, iNOS, TRPV1 or TNF-α (1:300 dilution) in solution A was performed overnight at 4° C. Secondary antibody mix was then added and incubated for 1 h at 37° C. After 3 washes with PBS and two washes with fresh distilled water the coverslips were mounted on glass slides using Vectashield mounting medium containing DAPI (Vector Laboratories, Inc. Burlingame, Calif.) for nuclear staining, before imaging under an LEICA confocal microscope (Buffalo Grove, Ill.)."}, "NOX3": {"test_system": "NOX3", "experiment": "Immunofluorescence staining of stress and inflammatory markers: NOX3", "procedure": "as §1"}, "[1]": {"test_system": "reactive oxygen species (ROS) in UB/OC-1 cells", "experiment": "ROS generation by CellROX green staining, confocal imaging", "procedure": "The cultures were kept at 33° C. in an incubator with 10% CO2. UB/OC1 cells were cultured on glass coverslips in 12-well culture plates. […] The cells were then washed once with phosphate buffered saline (PBS), and fixed in 4% paraformaldehyde for 15 minutes. The coverslips were then mounted with DAPI containing Vectashield (Vector Labs, Burlingame, Calif.)."}, "TNFα": {"test_system": "TNFα", "experiment": "Immunofluorescence staining of stress and inflammatory markers: TNFα", "procedure": "as §1"}, "UB/OC-1 cells [2]": {"test_system": "UB/OC-1 cells", "experiment": "Cell survival by FITC-AnnexinV/propidium iodide apoptosis detection, flow cytometry", "details": "for viability at 0.001 µM / viability at 0.01 µM / viability at 0.1 µM: Mus musculus", "procedure": "(§2) The cultures were kept at 33° C. in an incubator with 10% CO2. Cell survival after NPD1 treatment was also analyzed in UB/OC-1 cells in the presence or absence of damage. Specifically, cell death via apoptosis was determined by using FITC-AnnexinV Apoptosis detection kit (BD Pharmingen, San Diego, Calif., USA) and quantified by flow cytometry. In brief, 3,500 UB/OC-1 cells per well were seeded into a 96-well plate. […] At the end of the treatment time, UB/OC-1 cells were washed once with phosphate buffered saline (PBS) and harvested in a 0.5% trypsin/EDTA solution at 37° C., centrifuged at 220×g for 5 min and then immediately resuspended in the physiological buffer provided in the kit. […] The results were quantified using the CellQuest software (BD Biosciences, San Jose, Calif.). Data are expressed as percent viable (non-apoptotic cells) with the number of cells seeded into each well used as 100%. Three independent experiments were performed."}, "[3]": {"experiment": "Cell survival by FITC-AnnexinV/propidium iodide apoptosis detection, flow cytometry", "details": "mouse, no cisplatin; for viability at 1 nM: NPD1 1 nM alone; for viability at 10 nM: NPD1 10 nM alone; for viability at 100 nM: NPD1 100 nM alone", "procedure": "as §2"}, "TRPV-1": {"test_system": "TRPV-1", "experiment": "Immunofluorescence staining of stress and inflammatory markers: TRPV-1", "procedure": "as §1"}, "UB/OC-1 cells [4]": {"test_system": "UB/OC-1 cells", "experiment": "Cell viability by MTS assay (CellTiter 96 AQueous One Solution Cell Proliferation Assay), with and without cisplatin-induced damage", "details": "24 hours", "procedure": "In the examples described herein, UB/OC-1 cells, or immortalized organ of Corti cells derived from the mouse, were utilized to examine the activity of NPD1 in the context of ototoxic damage. […] The cultures were kept at 33° C. in an incubator with 10% CO2. […] In brief, 3,500 cells per well were seeded into a 96-well plate. […] NPD1 treatment of 1-100 nM concentrations was tested in 3 independent experiments. A cell proliferation assay was performed by using Cell-Titer 96® AQueous One Solution Cell Proliferation Assay Kit (Promega, Madison, Wis.), according to the manufacturer's instructions. After 24 hours, 20 μl of CellTiter 96 AQueous One Solution reagent was added to each well in 100 μl of total volume of media. Cells were incubated for 3 to 4 hours, and absorbance was recorded at 490 nm using an ELISA plate reader. The absorbance is directly proportional to the number of living cells and is expressed as a percent relative to vehicle-treated cells."}, "[5]": {"details": "NPD1 at 1 nM, 10 nM and 100 nM 30 minutes, then cisplatin 2.5 μM 24 hours"}, "[6]": {"details": "NPD1 (1, 10, 100 nM; particularly at 10 nM) 30 minutes, then cisplatin 2.5 μM 24 hours"}, "[7]": {"details": "average of three experiments, read-out: Cell Viability Avg."}, "[8]": {"details": "read-out: Set II Cell Viability"}, "[9]": {"details": "read-out: Set III Cell Viability"}, "[10]": {"details": "cisplatin only 2.5 μM, 24 hours"}},
  "note": "Where two headings read alike, the source gives them in different places.",
  "data": [
    {"smiles": "CC/C=C\\C[C@H](O)\\C=C/C=C/C=C/[C@H](O)C/C=C\\C/C=C\\CCC(=O)[O-].[Na+]", "note": "[NPD1, Sodium (4Z,7Z,10R,11E,13E,15Z,17S,19Z)-10,17-dihydroxydocosa-4,7,11,13,15,19-hexaenoate]", "values": [
      {"measurement": "iNOS expression (staining)", "setting": "iNOS; [5]", "result": "significant decrease"},
      {"measurement": "NOX3 expression (staining)", "setting": "NOX3; [5]", "result": "significant decrease"},
      {"measurement": "ROS staining", "setting": "[1]; NPD1 1 nM and 10 nM pre-treatment 30 minutes, then cisplatin 2.5 μM 30 minutes", "result": "decreased ROS staining"},
      {"measurement": "ROS staining", "setting": "[1]; NPD1 alone, no cisplatin", "result": "very little or no ROS staining"},
      {"measurement": "TNFα expression (staining)", "setting": "TNFα; [6]", "result": "decrease"},
      {"measurement": "viability at 0.001 µM", "setting": "UB/OC-1 cells [2]; read-out: Cell Viability Avg., NPD1 1 nM, 30 minutes later cisplatin 20 μM for 24 h, average of three experiments", "result": 87.6, "unit": "%"},
      {"measurement": "viability at 0.01 µM", "setting": "UB/OC-1 cells [2]; read-out: Cell Viability Avg., NPD1 10 nM, 30 minutes later cisplatin 20 μM for 24 h, average of three experiments", "result": 88.8, "unit": "%"},
      {"measurement": "viability at 0.1 µM", "setting": "UB/OC-1 cells [2]; read-out: Cell Viability Avg., NPD1 100 nM, 30 minutes later cisplatin 20 μM for 24 h, average of three experiments", "result": 89.2, "unit": "%"},
      {"measurement": "viability at 0.001 µM", "setting": "UB/OC-1 cells [2]; read-out: Set I Cell Viability, NPD1 1 nM, 30 minutes later cisplatin 20 μM for 24 h", "result": 85, "unit": "%"},
      {"measurement": "viability at 0.01 µM", "setting": "UB/OC-1 cells [2]; read-out: Set I Cell Viability, NPD1 10 nM, 30 minutes later cisplatin 20 μM for 24 h", "result": 84, "unit": "%"},
      {"measurement": "viability at 0.1 µM", "setting": "UB/OC-1 cells [2]; read-out: Set I Cell Viability, NPD1 100 nM, 30 minutes later cisplatin 20 μM for 24 h", "result": 90, "unit": "%"},
      {"measurement": "viability at 0.001 µM", "setting": "UB/OC-1 cells [2]; read-out: Set II Cell Viability, NPD1 1 nM, 30 minutes later cisplatin 20 μM for 24 h", "result": 83, "unit": "%"},
      {"measurement": "viability at 0.01 µM", "setting": "UB/OC-1 cells [2]; read-out: Set II Cell Viability, NPD1 10 nM, 30 minutes later cisplatin 20 μM for 24 h", "result": 86, "unit": "%"},
      {"measurement": "viability at 0.1 µM", "setting": "UB/OC-1 cells [2]; read-out: Set II Cell Viability, NPD1 100 nM, 30 minutes later cisplatin 20 μM for 24 h", "result": 80, "unit": "%"},
      {"measurement": "viability at 0.001 µM", "setting": "UB/OC-1 cells [2]; read-out: Set III Cell Viability, NPD1 1 nM, 30 minutes later cisplatin 20 μM for 24 h", "result": 94.9, "unit": "%"},
      {"measurement": "viability at 0.01 µM", "setting": "UB/OC-1 cells [2]; read-out: Set III Cell Viability, NPD1 10 nM, 30 minutes later cisplatin 20 μM for 24 h", "result": 96.5, "unit": "%"},
      {"measurement": "viability at 0.1 µM", "setting": "UB/OC-1 cells [2]; read-out: Set III Cell Viability, NPD1 100 nM, 30 minutes later cisplatin 20 μM for 24 h", "result": 97.6, "unit": "%"},
      {"measurement": "cell survival", "setting": "UB/OC-1 cells [2]; NPD1 treatment in cisplatin-induced damaged cells", "result": "over 96%"},
      {"measurement": "viability at 1 nM", "setting": "[3]; [7]", "result": 96.8, "unit": "%"},
      {"measurement": "viability at 1 nM", "setting": "[3]; read-out: Set I Cell Viability", "result": 96, "unit": "%"},
      {"measurement": "viability at 1 nM", "setting": "[3]; [8]", "result": 96, "unit": "%"},
      {"measurement": "viability at 1 nM", "setting": "[3]; [9]", "result": 98.5, "unit": "%"},
      {"measurement": "viability at 10 nM", "setting": "[3]; [7]", "result": 96.9, "unit": "%"},
      {"measurement": "viability at 10 nM", "setting": "[3]; read-out: Set I Cell Viability", "result": 96, "unit": "%"},
      {"measurement": "viability at 10 nM", "setting": "[3]; [8]", "result": 97, "unit": "%"},
      {"measurement": "viability at 10 nM", "setting": "[3]; [9]", "result": 97.7, "unit": "%"},
      {"measurement": "viability at 100 nM", "setting": "[3]; [7]", "result": 96.2, "unit": "%"},
      {"measurement": "viability at 100 nM", "setting": "[3]; read-out: Set I Cell Viability", "result": 91, "unit": "%"},
      {"measurement": "viability at 100 nM", "setting": "[3]; [8]", "result": 98, "unit": "%"},
      {"measurement": "viability at 100 nM", "setting": "[3]; [9]", "result": 99.5, "unit": "%"},
      {"measurement": "TRPV-1 expression (staining)", "setting": "TRPV-1; [6]", "result": "decrease"},
      {"measurement": "cell viability", "setting": "UB/OC-1 cells [4]; NPD1 1 nM-100 nM with cisplatin 20 μM, percent relative to vehicle-treated cells", "result": "over 95%"},
      {"measurement": "cell viability", "setting": "UB/OC-1 cells [4]; NPD1 at all tested concentrations (1 pM-100 nM) with cisplatin 20 μM, percent relative to vehicle-treated cells", "result": "over 80%"}
    ]},
    {"smiles": "N.N.[Cl][Pt][Cl]", "note": "[cisplatin, reference compound]", "values": [
      {"measurement": "iNOS staining", "setting": "iNOS; [10]", "result": "increased staining"},
      {"measurement": "NOX3 staining", "setting": "NOX3; [10]", "result": "increased staining"},
      {"measurement": "ROS staining", "setting": "[1]; cisplatin 2.5 μM alone, 30 minutes", "result": "ROS staining in the cytoplasm of the cell"},
      {"measurement": "TNFα staining", "setting": "TNFα; [10]", "result": "increased staining"},
      {"measurement": "TRPV-1 staining", "setting": "TRPV-1; [10]", "result": "increased staining"},
      {"measurement": "cell viability", "setting": "UB/OC-1 cells [4]; cisplatin 20 μM alone", "result": "reduced cell viability"}
    ]}
  ]
}
